Experimental data: patent US9366677B2, “Methods for analyzing biological macromolecular complexes and use thereof” (Max-Planck-Gesellshaft zur Foerderung der Wissenschaften …, priority 2011, dated 2016)
“Also recorded” adds a separate entry of the source.

Target: GroEL/GroES (Escherichia coli, UniProt P0A6F5)
Experiment: Thermofluor (DSF) unfolding of equimolar GroEL/GroES with adenine nucleotides
Format: binding
Conditions: in the presence of the nucleotide
Source text: In a next proof of principle for the validity of the method according to the present invention, it has been determined whether thermal unfolding was suitable to find small molecules, which stabilize molecular machines similarly as has been documented for single-domain proteins (Ericsson et al. 2006, Analytical Biochemistry, 357:289-298). For this the GroEL/GroES (homo-tetradecameric 800 kDa and homo-heptameric 70 kDa, respectively) chaperonin system has been analysed. Two important properties of the chaperonin system have been well documented in the literature (Sigler et al., 1998, Annual Reviews in Biochemistry, 67:581-608; Tang et al., 2006, Cell, 125:908-914). First, GroEL forms a double heptameric ring structure, which exposes hydrophobic residues on one face, where non-native substrate protein can bind. Second, the binding of adenine-nucleotides to GroEL induces a conformational change, which causes the previously exposed hydrophobic residues to be buried and is essential for GroES binding to one face of the GroEL double ring. Therefore, measurements according to the present invention of an equimolar GroEL/GroES should yield a high initial fluorescence owing to the solvent-exposed hydrophobic residues, which gradually decreases upon temperature ramping. […]

Sequence of GroEL/GroES (P0A6F9 whole entry): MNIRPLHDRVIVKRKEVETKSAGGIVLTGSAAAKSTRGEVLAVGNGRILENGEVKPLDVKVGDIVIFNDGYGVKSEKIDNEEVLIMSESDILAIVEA
Sequence of GroEL/GroES (P0A6F5 2-548): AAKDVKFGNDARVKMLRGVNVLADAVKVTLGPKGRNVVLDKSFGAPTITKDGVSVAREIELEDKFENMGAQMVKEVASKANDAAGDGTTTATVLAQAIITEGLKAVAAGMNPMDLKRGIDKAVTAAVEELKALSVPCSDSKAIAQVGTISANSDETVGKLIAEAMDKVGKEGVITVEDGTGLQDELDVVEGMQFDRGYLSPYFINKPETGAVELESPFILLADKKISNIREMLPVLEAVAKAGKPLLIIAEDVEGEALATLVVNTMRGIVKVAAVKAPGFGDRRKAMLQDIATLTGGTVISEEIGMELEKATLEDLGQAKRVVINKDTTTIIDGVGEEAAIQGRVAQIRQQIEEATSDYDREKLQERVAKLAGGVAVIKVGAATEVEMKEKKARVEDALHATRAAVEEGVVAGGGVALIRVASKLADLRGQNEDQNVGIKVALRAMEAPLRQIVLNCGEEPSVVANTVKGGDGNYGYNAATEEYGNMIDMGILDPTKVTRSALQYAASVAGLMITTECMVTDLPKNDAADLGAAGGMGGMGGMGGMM

Row | SMILES | unfolding transition of GroEL/GroES (complex formation)
1 | Nc1ncnc2c1ncn2[C@@H]1O[C@H](COP(=O)(O)OP(=O)(O)OP(=O)(O)O)[C@@H](O)[C@H]1O [ATP] | complexes are formed; also recorded: single—apparent two-state—unfolding transition
2 | Nc1ncnc2c1ncn2[C@H]1C[C@H](O)[C@@H](COP(=O)(O)OP(=O)(O)OP(=O)(O)O)O1 [dATP] | complexes are formed; also recorded: single—apparent two-state—unfolding transition
